Experimental findings from US20260226108A1, “FUSION POLYPEPTIDE AJ007 AND USE THEREOF” (NANJING ANJI BIOTECHNOLOGY CO, LTD., priority 2023, published 2026) are described below.

The nature of this data set: Ocular tissue distribution at equimolar concentration, eye dropping or intravitreal injection (Example 5), ELISA. The class given is in vivo, C57BL/6J mice. From the text: This example provides an ocular tissue distribution comparison experiment of the polypeptide eye drops (AJ007 eye drops) in Example 2 with an equimolar concentration of the multifunctional fusion polypeptide VI (HM-1), a multifunctional fusion polypeptide VI preparation (HM-1 preparation, with a polypeptide being HM-1 and a formulation of other excipients being the same as the AJ007 eye drops), a fusion polypeptide AJ007 preparation (TAT-HM-1, with a polypeptide being AJ007 and pure water as a vehicle) after eye dropping, and the multifunctional fusion polypeptide VI (HM-1) after intravitreal injection, which is specifically described below.
Animal grouping: […] C57BL/6J mice were randomly divided into a total of 7 time point groups, including 0 h, 10 min, 1 h, 3 h, 7 h, 12 h, and 24 h, with 2 mice in each group.
Experimental process: All the mice in the eye drop administration groups were administered bilateral eye drops 1 time, with 5 μL of a corresponding drug solution dropped into each eye, while 5 μL of a corresponding drug solution was injected into both eyes in the HM-1 intravitreal injection group. At the 7 time points of 0 h, 10 min, 1 h, 3 h, 7 h, 12 h, and 24 h after the completion of administration, the mice in the corresponding groups were respectively subjected to eyeball removal and blood collection, the collected whole blood was immediately centrifuged at 6,000 rpm for 5 minutes, and then, a supernatant was sucked and stored as a sample to be tested. Additionally, 3 tissue sites, namely the vitreous body, the retina, and the RPE/choroid complex, were isolated from an eyeball under a stereomicroscope, into which PBS was added at 1:10 for dilution, followed by grinding and centrifugation at 12,000 rpm for 5 minutes. A supernatant was sucked to serve as a sample to be tested. Subsequently, the concentration of HM-1 or fusion polypeptide AJ007 in each tissue was detected by an ELISA method.
(An ELISA detects its analyte on a solid surface through an enzyme-linked reagent.)

Residues, ends and D or L forms follow the SMILES beside them.

`C[C@H](NC(=O)CNC(=O)[C@H](CCCNC(=N)N)NC(=O)[C@H](CCCNC(=N)N)NC(=O)[C@H](CCCNC(=N)N)NC(=O)[C@H](CCCNC(=N)N)NC(=O)[C@H](CCC(N)=O)NC(=O)[C@H](CCCNC(=N)N)NC(=O)[C@H](CCCNC(=N)N)NC(=O)[C@H](CCCCN)NC(=O)[C@H](CCCCN)NC(=O)[C@H](CCCNC(=N)N)NC(=O)CNC(=O)[C@@H](N)Cc1ccc(O)cc1)C(=O)N[C@@H](CC(=O)O)C(=O)N[C@@H](CCCNC(=N)N)C(=O)N[C@@H](C)C(=O)NCC(=O)NCC(=O)NCC(=O)NCC(=O)N[C@@H](CCCNC(=N)N)C(=O)NCC(=O)N[C@@H](CC(=O)O)C(=O)O` [AJ007] (H-YGRKKRRQRRRRGADRAGGGGRGD-OH; N-terminus and C-terminus assumed): the “maintenance time at the RPE/choroid complex” value (eye dropping) is reported as “shorter”.

Turning to `C[C@H](NC(=O)CNC(=O)[C@@H](N)CCCNC(=N)N)C(=O)N[C@@H](CC(=O)O)C(=O)N[C@@H](CCCNC(=N)N)C(=O)N[C@@H](C)C(=O)NCC(=O)NCC(=O)NCC(=O)NCC(=O)N[C@@H](CCCNC(=N)N)C(=O)NCC(=O)N[C@@H](CC(=O)O)C(=O)O` [HM-1, Arg-Gly-Ala-Asp-Arg-Ala-Gly-Gly-Gly-Gly-Arg-Gly-Asp] (H-RGADRAGGGGRGD-OH; N-terminus and C-terminus assumed), the “maintenance time at the RPE/choroid complex” value reads like this: (eye dropping) “very short”; (intravitreal injection) “shorter”.
